Measurements published in patent publication US20220347305A1, “CONTROLLED RELEASE DRUG DIMERS” (Ripple Therapeutics Corporation, priority 2019, published 2022).

Key:
[1] = Drug release from heat-molded pellets in phosphate buffered saline; assay type: physicochemical; settings: 37° C.; for Observation of pellet after 1-day incubation in release buffer: 4 mL PBS, shaker 115 rpm
Description: Drug release from heat-molded pellets of the compounds were assessed in phosphate buffered saline (PBS). Heat-molded pellets were placed in 20 ml glass vials and 2 ml of release buffer was added. Samples were incubated at 37° C. with constant agitation at 115 rpm. Release buffer was sampled and fully replaced with 2 ml of fresh buffer on days 1, 3, 7, 10, and 14. Samples were analyzed by high performance liquid chromatography (HPLC) to quantify drug products. Cumulative release was calculated as a percentage of total mass of starting pellets and was plotted over time.
Heat molded pellets of Compound 3, Compound 5, and Compound 8 were then placed in 20 mL glass vials and 4 mL of release buffer (phosphate buffered saline, PBS) was added. Samples were incubated at 37° C. on a shaker rotating at 115 rpm. […] Drug release from Compound 8 was assessed by HPLC from PBS release buffer weekly for 8 weeks with full buffer change at each time point.

[2] = Pellet formation by heat molding (heat processing of compounds); assay type: physicochemical; settings: processed ~10-30° C. above Tg or Tm, pressed into cylindrical mold ~1 mm x 1 mm, light microscopy
Description: Crystalline powder was melted at 185° C. and pellets were formed from 1 mm×1 mm cylindrical molds. The starting powder and heat-processed pellets were tested by differential scanning calorimetry (DSC; FIG. 1C) and X-ray powder diffraction (XRPD; FIG. 1D) to confirm heat-processing converted Compound 1 from the crystalline state to the glassy state.
Compounds that were collected as stable powders and/or gums were investigated for pellet formation by heat molding. Compounds were processed at a temperature ˜10-30° C. above their corresponding thermal transitions (glass transition temperature (Tg) for gums or amorphous powders or melting point (Tm) for crystalline powders) and pressed into a cylindrical mold of ˜1 mm in height×1 mm in diameter. Light microscopy was used to capture images of the heat-formed pellets. Temperatures used to achieve a melt for heat molding were in a range from 70° C. to 220° C.

[3] = Drug release and erosion of Compound 1 heat-molded pellets in release buffer (PBS, 1% FBS in PBS, 100% FBS); assay type: physicochemical; settings: 37° C., 115 rpm
Description: Heat-molded pellets from Compound 1 (˜1 mm×1 mm) were then placed in 20 mL glass vials and 2 mL of release buffer (either 100% phosphate buffered saline (PBS), 1% fetal bovine serum (FBS) in PBS, or 100% FBS) was added. Samples were incubated at 37° C. on a shaker rotating at 115 rpm. After 1 day, 3 days, 7 days, and subsequently in alternating 3 and 4 day intervals (i.e., 1, 3, 7, 10, 14 days etc.), release buffer was sampled directly (PBS) or syringe filtered, proteins were precipitated with acetonitrile, and drug release products were extracted. The samples were analyzed by high performance liquid chromatography (HPLC) to quantify drug products. Cumulative drug release was calculated and plotted as a percentage of the total drug in each pellet released over time (FIG. 1E).

Structure (SMILES) | melting point | Pellet formation by heat molding and handling properties of the pellet [2] | also measured
O=C(OCCCCCCCOC(=O)N1CCCN(S(=O)(=O)c2cccc3cnccc23)CC1)N1CCCN(S(=O)(=O)c2cccc3cnccc23)CC1 [Compound 3, heptane-1,7-diyl bis(4-(isoquinolin-5-ylsulfonyl)-1,4-diazepane-1-carboxylate)] |  | successfully formed glassy, mostly transparent pellets | Observation of pellet after 1-day incubation in release buffer [1]: pellet shape changed to a clear gel
O=C(CCCCCCCCC(=O)N1CCCN(S(=O)(=O)c2cccc3cnccc23)CC1)N1CCCN(S(=O)(=O)c2cccc3cnccc23)CC1 [Compound 5, 1,10-bis(4-(isoquinolin-5-ylsulfonyl)-1,4-diazepan-1-yl)decane-1,10-dione] |  | successfully formed glassy, mostly transparent pellets | Observation of pellet after 1-day incubation in release buffer [1]: fragmented entirely to opaque particulates
C[C@@H]1C[C@H]2[C@@H]3CCC4=CC(=O)C=C[C@]4(C)[C@@]3(F)[C@@H](O)C[C@]2(C)[C@@]1(O)C(=O)COC(=O)OCCOCCOCCOC(=O)OCC(=O)[C@@]1(O)[C@H](C)C[C@H]2[C@@H]3CCC4=CC(=O)C=C[C@]4(C)[C@@]3(F)[C@@H](O)C[C@@]21C [Compound 1, Dexamethasone-Triethylene Glycol-Dexamethasone] |  | formed into pellets in the glassy state | Erosion of pellets over time (representative images) [3]: surface erosion over time
O=C(CCCCC(=O)Oc1ccc2c3c1O[C@H]1C(=O)CC[C@@]4(O)[C@@H](C2)N(CC2CC2)CC[C@]314)Oc1ccc2c3c1O[C@H]1C(=O)CC[C@@]4(O)[C@@H](C2)N(CC2CC2)CC[C@]314 [Compound 10, bis((4R,4aS,7aR,12bS)-3-(cyclopropylmethyl)-4a-hydroxy-7-oxo-2,3,4,4a,5,6,7,7a-octahydro-1H-4,12-methanobenzofuro[3,2-e]isoquinolin-9-yl) adipate] |  | didn't form a viscous liquid that could be pressed into a pellet | 
COc1ccc2c(c1)c(CC(=O)OCCOCCOCCOC(=O)Cc1c(C)n(C(=O)c3ccc(Cl)cc3)c3ccc(OC)cc13)c(C)n2C(=O)c1ccc(Cl)cc1 [Compound 8, (ethane-1,2-diylbis(oxy))bis(ethane-2,1-diyl) bis(2-(1-(4-chlorobenzoyl)-5-methoxy-2-methyl-1H-indol-3-yl)acetate)] | 102 °C | formed opaque yellow-tinted pellets that could be handled | Drug release from pellet assessed by HPLC ([1]; PBS release buffer, weekly for 8 weeks with full buffer change): Minimal drug release
O=C(Oc1ccc2c3c1O[C@H]1C(=O)CC[C@@]4(O)[C@@H](C2)N(CC2CC2)CC[C@]314)c1ccc(C(=O)Oc2ccc3c4c2O[C@H]2C(=O)CC[C@@]5(O)[C@@H](C3)N(CC3CC3)CC[C@]425)cc1 [Compound 16, bis((4R,4aS,7aR,12bS)-3-(cyclopropylmethyl)-4a-hydroxy-7-oxo-2,3,4,4a,5,6,7,7a-octahydro-1H-4,12-methanobenzofuro[3,2-e]isoquinolin-9-yl) terephthalate] |  |  | Pellet formation by heat molding and handling properties of the pellet ([2]; listed as Naltrexone-1,4-terephthalate-Naltrexone): did not form a heat processed pellet

Further lines, with some results ahead:

melting point | Structure (SMILES) | Pellet formation by heat molding and handling properties of the pellet [2] | also measured
120 °C | C=CCN1CC[C@]23c4c5ccc(OC(=O)CCCCC(=O)Oc6ccc7c8c6O[C@H]6C(=O)CC[C@@]9(O)[C@@H](C7)N(CC=C)CC[C@]869)c4O[C@H]2C(=O)CC[C@@]3(O)[C@H]1C5 [Compound 9, bis((4R,4aS,7aR,12bS)-3-allyl-4a-hydroxy-7-oxo-2,3,4,4a,5,6,7,7a-octahydro-1H-4,12-methanobenzofuro[3,2-e]isoquinolin-9-yl) adipate] |  | 
161 to 166 °C | N[C@@H](Cc1ccc(O)c(O)c1)C(=O)OCC1CCC(COC(=O)[C@@H](N)Cc2ccc(O)c(O)c2)CC1 (stereo partly drawn) [Compound 6, cyclohexane-1,4-diylbis(methylene) (2S,2′S)-bis(2-amino-3-(3,4-dihydroxyphenyl)propanoate)] |  | 
